# Results: patent publication US20170307590A1, “INHIBITORS OF MALARIAL AND HUMAN GLUCOSE TRANSPORTERS AND METHODS FOR IDENTIFYING THE INHIBITORS” (Washington University in St. Louis, priority 2016, published 2017)
# Where two headings read alike, the source gives them in different places.
# Legend:
# [1] = target: T1, PfHT (Plasmodium falciparum, UniProt O97467); assay: Heterologous FRET glucose sensor screening assay in PfHT-FLIP HEK293 cells; format: cell-based; settings: for inhibition at 10 µM: HEK293, FRET ratio, vehicle 100%, 200 μM CB 0%
# T1 construct: endogenous in cells; host or cells: P. falciparum 3D7 parasites freed from human erythrocytes
# T1 sequence (O97467 1-504): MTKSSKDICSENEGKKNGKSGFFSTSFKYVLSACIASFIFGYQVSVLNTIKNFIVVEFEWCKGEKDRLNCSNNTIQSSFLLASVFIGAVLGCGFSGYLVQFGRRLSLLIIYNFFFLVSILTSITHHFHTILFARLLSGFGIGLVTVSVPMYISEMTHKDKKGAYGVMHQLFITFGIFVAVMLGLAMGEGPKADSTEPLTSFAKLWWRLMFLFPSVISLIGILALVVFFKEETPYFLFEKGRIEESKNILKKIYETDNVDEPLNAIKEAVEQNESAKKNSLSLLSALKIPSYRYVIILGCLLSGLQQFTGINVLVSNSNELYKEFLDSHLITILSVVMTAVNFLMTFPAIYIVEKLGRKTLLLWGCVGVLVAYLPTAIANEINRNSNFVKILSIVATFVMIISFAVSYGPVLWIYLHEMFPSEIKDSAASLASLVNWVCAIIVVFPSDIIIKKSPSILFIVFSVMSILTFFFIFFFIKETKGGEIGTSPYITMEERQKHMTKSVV
# From the text: HEK293 cells were transfected with pcDNA3.1 FLII12Pglu-700uDelta6 (Addgene, Cambridge, Mass.), containing the FRET glucose sensor (HEK293-FLIP) using Optifect Reagent (Life Technologies, Waltham, Mass.) according to manufacturer's specifications. Cells that stably integrated the gene were selected using G418 (Sigma Aldrich, St. Louis, Mo.) and highest expressers were identified using Fluorescence Activated Cell Sorting (FACS). These cells were then stably transfected with PfHT, human GLUT1 (hGLUT1), human GLUT2 (hGLUT2), human GLUT3 (hGLUT3) or human GLUT4 (hGLUT4) DNA in the pcDNA 3.1(−) hygro plasmid (Life Technologies). Single clones were selected by comparing their ability to transport radiolabeled glucose. In all cell lines except for HEK293 overexpressing hGLUT1 cells, native hGLUT1 was knocked down using shRNA.
# 96-well plates were pretreated with 25 μg/ml Polyethylenimine (PEI, 750 kDa, Sigma Aldrich) solution containing 150 mM NaCl to maintain cell adhesion during washing steps. After 20 min incubation at room temperature (RT), PEI was aspirated and wells were air dried for 5 min. PfHT-FLIP cells were plated 48 h prior to the assay in black opaque 96-well plates (Greiner Bio-One, Monroe, N.C.), which were previously treated with PEI, at 30,000 cells/well. After cell plating, plates were then left in the sterile hood at RT for 45 min before transfer to the incubator to reduce edge effects. Compound screening was performed using the integrated and automated screening system (Beckman Coulter, Brea, Calif.) at the Washington University High Throughput Screening Core. SAMI EX software (Beckman Coulter) was used to design and execute the screening protocol. The Malaria Box (Medicines for Malaria Venture, Geneva, Switzerland) compound library was prediluted in glucose-free HEPES buffered saline solution (HBSS) (146 mM NaCl, 4.7 mM KCl, 0.6 mM MgSO4, 1.6 mM NaHCO3, 0.13 mM NaH2PO4, 2.5 mM CaCl2, 20 mM HEPES, pH 7.3) using the BiomekFX liquid handler (Beckman Coulter). A 1:100 dilution of 1 mM stock solution was prepared for 10 μM final concentration.
# To initiate the screening assay, cells were washed twice with 150 μl HBSS per well using the ELx405 Plate Washer (Biotek, Winooski, Vt.). Cells were starved in HBSS for 30 min at RT, followed by aspiration of the HBSS from cell plates using the ELx405 Plate Washer. Cells were treated with 45 μl of diluted compound using the BiomekFX (with 3 replicate cell plates for each library plate) and incubated for 6 min at RT. To initiate the uptake, 5 μl of 100 mM glucose was added to the wells (final concentration 10 mM) using a Multidrop384 dispenser (Thermo Fisher Scientific, Waltham, Mass.). After incubation at RT for 120 min, fluorescence was measured using the 2102 EnVision Multilabel Plate Reader (Perkin Elmer, Waltham, Mass.) at excitation 436 nm (CFP) and emissions 485 nm (CFP) and 535 nm (YFP).
# The Malaria Box was screened at 10 μM drug concentrations in triplicate and selected hits that decreased the FRET ratio by more than 30% with vehicle-treated cells set to 100% and cells treated with 200 μM CB set to 0%. Since fluorescent compounds have the potential to generate false positive hits, the FRET ratio of compounds without cells present was determined. After false positive elimination, 5 compounds were identified as primary hits. Hit confirmation was ascertained by determining the IC50 for glucose uptake into isolated P. falciparum parasites from blood culture using radiolabeled D-glucose. […] Compound MMV020548 was included for comparison as it was previously identified from the same library. The similar IC50 observed in the freed parasite glucose uptake assay and in vitro growth inhibition assay for MMV009085, was consistent with the interpretation that this compound is acting through PfHT blockage to inhibit parasite growth (Table 3) although, alternative targets in the parasite might be inhibited as well.
# [2] = target: T1, PfHT; assay: Uptake of [14C]-2-DOG into isolated (freed) P. falciparum parasites; format: cell-based
# Procedure: P. falciparum strain 3D7 was cultured in 100 mm tissue culture dishes (Techno Plastic Products, Trasadingen Switzerland) in a 2% suspension of human erythrocytes and RPMI 1640 medium until reaching >5% parasitemia. Cells were pelleted via centrifugation and resuspended in RPMI. To determine the uptake of radiolabeled glucose into the parasite, it was isolated from the erythrocyte while removing uninfected erythrocytes. Uptake of [^14C]-2-DOG into isolated parasites was determined at RT using the methods described previously(19). Test compounds were added 5 min prior to the addition of [^14C]-2-DOG (0.2 μCi/ml final concentration). Uptake was quenched after 2 min Data were fit by nonlinear regression analysis using GraphPad Prism software. Uptake of [^3H]-2-DOG into HEK293-FLIP cell lines was measured in HEPES-buffered saline at RT for 4 min Data were fit by nonlinear regression analysis using GraphPad Prism software.
# [3] = system: P. falciparum; settings: values provided with the malaria box; read-out: EC50 for P. falciparum growth inhibition Malaria box; cited from earlier work
# [4] = system: P. falciparum strain 3D7; assay: P. falciparum growth inhibition assay (PicoGreen DNA content); format: cell-based; settings: Plasmodium falciparum; for EC50: intraerythrocytic forms, strain 3D7
# Procedure: P. falciparum strain 3D7 was obtained from the Malaria Research and Reference Reagent Resource Center (MR4). P. falciparum parasites were cultured in a 2% suspension of human erythrocytes and RPMI 1640 (Sigma Aldrich) medium supplemented with 27 mM sodium bicarbonate, 11 mM glucose, 5 mM HEPES, 1 mM sodium pyruvate, 0.37 mM hypoxanthine, 0.01 mM thymidine, 10 μg/ml gentamicin, and 0.5% Albumax (Gibco, Waltham, Mass.) at 37° C., 5% O2/5% CO2/90% N2 atmosphere.
# Asynchronous P. falciparum cultures were diluted to 1% parasitemia and were treated with compounds at concentrations ranging from 9.8 nM-20 μM. Growth inhibition assays were performed in 100 μl cultures in opaque 96-well plates. Parasite growth was quantified after 3 days by measuring DNA content using PicoGreen (Life Technologies). Fluorescence was measured by a FLUOstar Omega microplate reader (BMG Labtech, Cary, N.C.) at 485 nm excitation and 528 nm emission. IC50 values were calculated by nonlinear regression analysis using GraphPad Prism software.
# [5] = target: T1, PfHT; assay: Glucose uptake into PfHT overexpressing L. mexicana parasites (Ortiz et al.); format: cell-based
# [6] = system: hGLUTs 1-4; assay: Uptake of [3H]-2-DOG by HEK293 cells overexpressing PfHT or hGLUTs 1-4; format: cell-based, human
# Procedure: To establish selectivity of these hits for PfHT over human orthologues, the inhibition of GLUTs 1, 2, 3 and 4 was cross-validated by the confirmed hits. […] The inhibitory effect of the five confirmed hits was determined on all four human class I GLUTs at the IC50 concentration for PfHT-mediated glucose uptake inhibition.
# [7] = target: T1, PfHT; settings: cited from earlier work
# [8] = system: parasites; settings: cited from earlier work
# [9] = system: human insulin-responsive glucose transporter GLUT4; settings: cited from earlier work
# [10] = IC50 PfHT in parasites, Table 1
# [11] = IC50 for glucose uptake in freed parasites, from dose-response curves of FIG. 4
# [12] = 72 h, P. falciparum strain 3D7, growth after 3 days, read-out: IC50 3D7 in vitro
# [13] = PfHT overexpressing L. mexicana, read-out: IC50 PfHT (determined by Ortiz et al. (15) in L. mexicana)
Compound,"IC50 [2, 10] [nM]","IC50 [2, 11] [nM]",EC50 [3] [nM],"IC50 [4, 12] [nM]",EC50 [4] [nM],inhibition at 10 µM [1] [%],glucose uptake versus proline transport in PfHT-overexpressing Leishmania mexicana [7],also measured
"C=C1[C@@H](C)[C@H]2[C@H](Cc3ccccc3)NC(=O)[C@]23OC(=O)/C=C/[C@H](O)CCC[C@@H](C)C/C=C/[C@H]3[C@@H]1O [CB, cytochalasin B, reference compound]",,,,,,,,"maximal decrease in FRET ratio ([1]; 50 μM, PfHT-FLIP cells): 75%; inhibition of D-glucose uptake ([1]; 200 μM, PfHT-FLIP cells): complete inhibition"
Cc1ccc2nc(C)cc(Nc3cccc(C(F)(F)F)c3)c2c1 [MMV000326],139000,286000,1170,344,344,49,,
O=C1c2ccc3c4c(ccc(c24)C(=O)N1CCCCO)C(=O)N(CCCCO)C3=O [MMV009085],1800,,795,987,987,87,"selectively inhibit glucose uptake, but not proline transport","IC50 ([2]; IC50 for PfHT-mediated glucose uptake): 2600 nM; difference in potency by the two assays (parasite growth vs L. mexicana PfHT overexpression) [5]: 20 fold; selectivity for PfHT over human orthologues (IC50s for glucose uptake inhibition) [6]: more than 10 fold; IC50 ([7]; read-out: IC50 L. mexicana PfHT overexpression assay): 51 nM; IC50 ([4]; 3D7, read-out: IC50 malaria parasite growth assay): 990 nM"
CCN1CCN(Cc2ccc(NC(=O)c3cc4ccc5cccnc5c4[nH]3)cc2)CC1 [MMV020548],21300,15500,361,114,114,21,"selectively inhibit glucose uptake, but not proline transport","IC50 [7, 13]: 3500 nM"
CC(C)(C)C(=O)Nc1ccc(C(=O)Nc2cccc(-c3nc4ccccc4[nH]3)c2)cc1 [MMV665879],6600,8300,,390,390,49,"selectively inhibit glucose uptake, but not proline transport","IC50 [7, 13]: 2700 nM"
COc1cc(C(=O)Nc2ccc(-c3nc4ccccc4[nH]3)cc2)cc(OC)c1OC [MMV665898],6200,5300,1220,487,487,64,,
CN(C)c1ccc(C(O)(c2ccc(N(C)C)cc2)c2ccc(N(C)C)cc2)cc1 [MMV665941],13300,19600,255,26,26,31,,inhibition of glucose uptake at the highest concentration tested ([2]; FIG. 4): only partial inhibition
Cc1cccc(C)c1OCC(=O)N[C@@H](Cc1ccccc1)[C@@H](O)C[C@H](Cc1ccccc1)NC(=O)[C@H](C(C)C)N1CCCNC1=O [lopinavir],,,,,,,,"IC50 [8]: 16000 nM; selectivity GLUT4 over PfHT [9]: higher selectivity for the human insulin-responsive glucose transporter GLUT4 over PfHT; FRET ratio with addition of D-glucose ([1]; PfHT-FLIP cells, FIG. 2a): decreased FRET ratio"
